Here are results for 4 molecules from patent US7052834B1, “Tumor suppressor protein involved in death signaling, and diagnostics, therapeutics, and screening based on this protein” (St. Jude Children's Research Hospital, priority 1998, dated 2006).

The test system of one experiment is NB3. As to the kind of experiment: Doxorubicin-induced apoptosis (TUNEL). It counts as cell-based, human. To be noted: 0.1 mM doxorubicin for 48 hrs, percentage of cell death by TUNEL.
The next experiment relates to NB5. The experiment is described as follows: Doxorubicin-induced apoptosis (TUNEL). It counts as cell-based, human. Conditions: 0.1 mM doxorubicin for 48 hrs, percentage of cell death by TUNEL.
The next experiment has as its system NB7. The experiment is described as follows: Doxorubicin-induced apoptosis (TUNEL). It counts as cell-based, human. Here is the method: (§1) In order to determine whether exogenous expression of caspase-8 resensitized caspase-8 null NB cells to chemotherapeutic agents, NB7 cells and NB7 cells transduced with pMSCV-Casp8(wt) were treated with doxorubicin. Doxorubicin-induced neuroblastoma apoptosis has previously been linked to the Fas receptor pathway (Fulda et al., Cancer Res., 1997, 57:3823–3829). The NB7 cell line was chosen since it lacks a functional CASP8 gene (FIGS. 4 and 5, Table 2).

The test system of experiment [1] is NB8. The experiment is described as follows: Doxorubicin-induced apoptosis (TUNEL). Conditions: 0.1 mM doxorubicin for 48 hrs. It counts as cell-based, human.
A further experiment deals with NB cell lines. The experiment is described as follows: Sensitivity of NB cell lines to doxorubicin-induced apoptosis. It counts as cell-based, human. As for the experimental part:
as §1

A further experiment concerns the target TNFR p55 (human) (UniProt P19438). As to the kind of experiment: cell-based or functional assay.
Experiment [2] has as its system NB10. The experiment is described as follows: Fas mAb-induced apoptosis in cells with programmed caspase-8 expression. It counts as cell-based, human. Conditions: zVAD-fmk added prior to programmed expression of caspase-8. As for the experimental part: (§2) FIGS. 8A, 8B, 8C, 8D, and 8E. Effects of retrovirus expression of caspase-8 in three different NB cell lines that are caspase-8 nulls. […] The caspase-8(DN) product migrates at a higher molecular weight due to an HA-tag attached to its carboxyl-terminus. B, C:Morphology of NB7/Casp8 cells 5 hours after treatment with TNFα and cycloheximide. Membrane blebbing (Nomarski view, B) and condensed chromatin (visualized by DAPI staining, C), characteristics of apoptotic cells, are clearly visible. D:Percentage of cells that are positive for cell surface annexin-V staining, another hallmark of apoptotic cells. The various cell lines and their treatment regimens are shown at the bottom. E: Apoptotic induction by Fas mAb in proliferating NB8 and NB10 cells stably expressing caspase-8 at a low level. Induction measured as percentage of cells that are TUNEL-positive. The various cell lines and their treatment regimens are shown at the bottom.
(§3) Apoptotic assays. Cells were collected for annexin V-FITC staining and FACS analysis after the culture media containing zVAD-fmk was removed and replaced with normal culture medium for 6 hours in NB8 and NB 10. […] Viable cells were determined by light and immunofluorescent microscopy after removal of the zVAD-fmk containing culture medium and incubation at 37° C. for 0.5, 1, 2, 4 and 6 hrs for the pMSCV-Casp 8(wt) and DN transduced NB8 and NB10 cells. […]

The subject of experiment [3] is NB8. The description is as above. It counts as cell-based, human. To be noted: zVAD-fmk added prior to programmed expression of caspase-8. Here is the method: as §2, §3
Experiment [4] concerns NB10. The experiment is described as follows: 5-aza-cytidine treatment: caspase-8 western blot and apoptosis. It counts as cell-based, human. The text has this:
(§4) Caspase-8 western blot analysis of cell lysates from the NB8, NB10, and NB14 cell lines with (+) or without (−) 5-aza-2′-deoxycytidine. […] We therefore examined DNA methylation of CASP8 regulatory sequences as an alternative mechanism through which expression could be silenced, as documented for several tumor suppressor genes, such as INK4a, CDKN1, CDKN2, PTEN, MLH1, von Hippel-Lindau, and E-cadherin (Baylin et al., Adv. Cancer Res., 1998, 72:141–196; Belinsky et al., Proc. Natl. Acad. Sci. USA, 1998, 95:11891; Whang et al., Proc.Natl.Acad.Sci.USA,1998, 95:5246–5250; Merlo et al., Nature Medicine, 1995, 1:686–692).
(§5) The role of methylation of CASP8 regulatory sequences was tested by treating NB cells with 5-aza-cytidine, a compound that promotes the demethylation of CpG dinucleotides (Merlo et al., Nature Medicine, 1995, 1:686–692). When cells were treated with 10–50 μM 5-aza-cytidine for 2–3 days, caspase-8 expression was activated in the NB8 and NB11 cell lines, but not NB14 (FIG. 6A).

Another experiment deals with NB14. Described as above. It counts as cell-based, human. To be noted: after 10–50 μM for 2–3 days.
Text: as §4, §5

Experiment [5] concerns NB8. Described as above. It counts as cell-based, human.
Text: as §4, §5

In a further experiment the test system is NB11. As to the kind of experiment: 5-aza-cytidine treatment: caspase-8 western blot. It counts as cell-based, human. Conditions: 10–50 μM for 2–3 days.
Text: as §4, §5

Another experiment concerns neuroblastoma cell lines. The experiment is described as follows: Apoptosis after re-establishing caspase-8 expression. It counts as cell-based, human. Conditions: cell lines not expressing caspase-8. An excerpt: The present invention is based, in part, on the surprising discovery that CASP8 is functionally inactivated in greater than 90% of all MYCN amplified neuroblastoma cell lines analyzed. Neuroblastoma is a pediatric solid tumor, and those cases with MYCN amplification have a particularly poor prognosis. […] This discovery is significant in oncology, because cells in which caspase-8 is not expressed are not capable of undergoing apoptosis mediated by death receptors such as Fas and DR3.

Peptide text beside a SMILES is read from it. * marks the point of attachment. Cbz = O=C(OCc1ccccc1)*; CH2F = FC*

Chain of TNFR p55 (human) (P19438 30-455): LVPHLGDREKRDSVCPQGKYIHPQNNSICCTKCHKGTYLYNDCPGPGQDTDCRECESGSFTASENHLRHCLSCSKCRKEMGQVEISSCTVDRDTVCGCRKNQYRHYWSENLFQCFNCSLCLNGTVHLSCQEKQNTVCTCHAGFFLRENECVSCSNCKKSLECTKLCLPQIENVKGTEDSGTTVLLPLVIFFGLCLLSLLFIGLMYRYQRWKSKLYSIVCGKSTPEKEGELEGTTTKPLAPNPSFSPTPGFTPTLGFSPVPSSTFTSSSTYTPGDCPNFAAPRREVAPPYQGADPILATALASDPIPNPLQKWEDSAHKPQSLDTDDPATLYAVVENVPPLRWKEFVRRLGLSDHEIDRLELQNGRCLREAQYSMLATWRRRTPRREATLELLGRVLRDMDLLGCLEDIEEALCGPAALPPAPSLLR

With `COc1cccc2c1C(=O)c1c(O)c3c(c(O)c1C2=O)C[C@@](O)(C(=O)CO)C[C@@H]3O[C@H]1C[C@H](N)[C@H](O)[C@H](C)O1` [Doxorubicin, doxorubicin], the “Doxorubicin-induced Apoptosis” value in the experiment with NB3 is 52 +/− 4%; in the experiment with NB5, 54 +/− 4.6%; in the experiment on NB7 (NB7, 0.1 mM doxorubicin for 48 hrs, percentage of cell death by TUNEL) it was 24 +/− 3%; in the experiment with NB8 [1] (NB8, percentage of cell death by TUNEL), 18 +/− 2.6%. In addition, the “Doxorubicin-induced Apoptosis (+caspase-8)” value is recorded as 42 +/− 2.6% with NB7 (NB7 +caspase-8, 0.1 mM doxorubicin for 48 hrs, TUNEL) and 38 +/− 2% in the experiment with NB8 [1] (NB8 +caspase-8, TUNEL). Also, the “increase in the level of cell death” value with NB7 (NB7 cells expressing functional caspase-8 vs parental/pMSCV/pMSCV-Casp8(DN), low levels of doxorubicin) is on record as 70–100%. The “apoptosis after exposure to low levels of doxorubicin” value in the experiment on NB7 (parental NB7 cells and those transduced with pMSCV or pMSCV-Casp8(DN)) is “very limited apoptosis”. The “sensitization to doxorubicin-induced apoptosis” value in the experiment on NB cell lines (NB cell lines (e.g., NB16 and NB21) expressing caspase-8) was “more sensitized”; with NB cell lines (cell lines that do not express caspase-8, regardless of Fas/CD95 status) it was “not sensitized”.

Turning to TNF-α (ligand), in the experiment with TNFR p55 (human), the apoptosis of NB7 cells lacking caspase-8, five hours after TNF-α/CHX treatment (annexin-V staining) worked out at 5% and the apoptosis of NB7 cells transduced with pMSCV-Casp8(wt), five hours after TNF-α/CHX treatment (DAPI, annexin-V staining) was 40%.

For the molecule `COC(=O)C[C@H](NC(=O)[C@H](C)NC(=O)[C@@H](NC(=O)OCc1ccccc1)C(C)C)C(=O)CF` [zVAD-fmk] (Cbz-Val-Ala-Asp(OMe)-CH2F), the “apoptosis induced by agonistic Fas mAb” value in the experiment with NB10 [2] and in the experiment with NB8 [3] was “blocked” in each case.

On to `Nc1ncn([C@@H]2O[C@H](CO)[C@@H](O)[C@H]2O)c(=O)n1` [5-aza-cytidine], for which the caspase-8 expression entry in the experiment on NB10 [4] (FIG. 6A) was “results in the expression of caspase-8”; in the experiment on NB8 [5] (10–50 μM for 2–3 days), “activated”; with NB11 it was “activated”. Moreover, the spontaneous apoptosis entry in the experiment on NB10 [4] (after 10–50 μM for 2–3 days) is reported as “underwent spontaneous apoptosis”; in the experiment with NB14, “not”; in the experiment on NB8 [5] (after 10–50 μM for 2–3 days) it was “underwent spontaneous apoptosis”. In the experiment on neuroblastoma cell lines, the “apoptosis when caspase-8 expression is re-established” value was “undergo apoptosis”.
